pIC50: −log10 of the molar value.

The experiment addresses PD-1/PD-L1 (Homo sapiens, UniProt Q9NZQ7). Description: TR-FRET PD-1/PD-L1 binding inhibition at the molecular level (free proteins). As to conditions: Tag1-PD-L1 and Tag2-PD-1 proteins, twelve concentrations from 200 nM, 2 hours at room temperature, read-out: FRET assay (IC50). The method, boiled down: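 HTRF read-out at 665/620 nm after 2 h at room temperature. Detection used anti-Tag1 Eu cryptate plus anti-Tag2 XL665 antibodies. Tagged PD-L1 and PD-1 proteins were pre-mixed with compound across twelve […] 1:2 dilutions starting at 200 nM.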
(Time-resolved FRET reads energy transfer from a long-lived donor to a nearby acceptor.)

Sequence of PD-1/PD-L1 (Q9NZQ7 19-238 limits assumed): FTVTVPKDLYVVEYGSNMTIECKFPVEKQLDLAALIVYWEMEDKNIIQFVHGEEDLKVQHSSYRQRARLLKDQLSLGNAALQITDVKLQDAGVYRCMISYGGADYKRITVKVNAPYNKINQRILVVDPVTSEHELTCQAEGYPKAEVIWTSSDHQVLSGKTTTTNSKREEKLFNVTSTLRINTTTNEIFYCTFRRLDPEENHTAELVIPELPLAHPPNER

Turning to `CC(C)(O)C1CN(C2CCCn3nc(C(=O)Nc4cccc(-c5cccc(Nc6nccc7cc(CN8CC[C@@H](O)C8)cnc67)c5Cl)c4Cl)cc32)C1` (stereo partly drawn) [Compound 237, N-(2,2'-dichloro-3'-((3-(((R)-3-hydroxypyrrolidin-1-yl)methyl)-1,7-naphthyridin-8-yl)amino)-[1,1'-biphenyl]-3-yl)-4-(3-(2-hydroxypropan-2-yl)azetidin-1-yl)-4,5,6,7-tetrahydropyrazolo[1,5-a]pyridine-2-carboxamide], the pIC50 (as a rule, the negative decadic logarithm of the IC50, by convention in mol/L) is 7.00 to 8.00.

`O=C1CCC2(CN(C3CCCn4nc(C(=O)Nc5cccc(-c6cccc(Nc7nccc8cc(CN9CC[C@@H](O)C9)cnc78)c6Cl)c5Cl)cc43)C2)N1` (stereo partly drawn) [Compound 238, N-(2,2'-dichloro-3'-((3-(((R)-3-hydroxypyrrolidin-1-yl)methyl)-1,7-naphthyridin-8-yl)amino)-[1,1'-biphenyl]-3-yl)-4-(6-oxo-2,5-diazaspiro[3.4]octan-2-yl)-4,5,6,7-tetrahydropyrazolo[1,5-a]pyridine-2-carboxamide]: the pIC50 is 7.00 to 8.00. The figure for `O=C(O)CCCNC1CCCn2nc(C(=O)Nc3cccc(-c4cccc(Nc5nccc6cc(CN7CC[C@@H](O)C7)cnc56)c4Cl)c3Cl)cc21` (stereo partly drawn) [Compound 239, 4-((2-((2,2'-dichloro-3'-((3-(((R)-3-hydroxypyrrolidin-1-yl)methyl)-1,7-naphthyridin-8-yl)amino)-[1,1'-biphenyl]-3-yl)carbamoyl)-4,5,6,7-tetrahydropyrazolo[1,5-a]pyridin-4-yl)amino)butanoic acid] is 7.00 to 8.00. For the compound `O=C(Nc1cccc(-c2cccc(Nc3nccc4cc(CN5CC[C@@H](O)C5)cnc34)c2Cl)c1Cl)c1cc2n(n1)CCCC2N1CCCC1=O` (stereo partly drawn) [Compound 240, N-(2,2'-dichloro-3'-((3-(((R)-3-hydroxypyrrolidin-1-yl)methyl)-1,7-naphthyridin-8-yl)amino)-[1,1'-biphenyl]-3-yl)-4-(2-oxopyrrolidin-1-yl)-4,5,6,7-tetrahydropyrazolo[1,5-a]pyridine-2-carboxamide], the pIC50 was 7.00 to 8.00. To `CC(=O)NCCN[C@H]1CCCn2nc(C(=O)Nc3cccc(-c4cccc(NC(=O)c5ccc(CNCCO)cn5)c4Cl)c3Cl)cc21` [Compound 241, (S)-4-((2-acetamidoethyl)amino)-N-(2,2'-dichloro-3'-(5-(((2-hydroxyethyl)amino)methyl)picolinamido)-[1,1'-biphenyl]-3-yl)-4,5,6,7-tetrahydropyrazolo[1,5-a]pyridine-2-carboxamide] belongs over 8.00. To `CC(=O)NCCN[C@@H]1CCCn2nc(C(=O)Nc3cccc(-c4cccc(NC(=O)c5ccc(CNCCO)cn5)c4Cl)c3Cl)cc21` [Compound 242, (R)-4-((2-acetamidoethyl)amino)-N-(2,2'-dichloro-3'-(5-(((2-hydroxyethyl)amino)methyl)picolinamido)-[1,1'-biphenyl]-3-yl)-4,5,6,7-tetrahydropyrazolo[1,5-a]pyridine-2-carboxamide] belongs over 8.00.

`O=C(Nc1cccc(-c2cccc(NC(=O)c3cc4n(n3)CCC[C@@H]4N3CC[C@@H](O)C3)c2Cl)c1Cl)c1ccc(CNCCO)cn1` [Compound 243, (S)-N-(2,2'-dichloro-3'-(5-(((2-hydroxyethyl)amino)methyl)picolinamido)-[1,1'-biphenyl]-3-yl)-4-((R)-3-hydroxypyrrolidin-1-yl)-4,5,6,7-tetrahydropyrazolo[1,5-a]pyridine-2-carboxamide]: the pIC50 is over 8.00. To `O=C(Nc1cccc(-c2cccc(NC(=O)c3cc4n(n3)CCC[C@H]4N3CC[C@@H](O)C3)c2Cl)c1Cl)c1ccc(CNCCO)cn1` [Compound 244, (R)-N-(2,2'-dichloro-3'-(5-(((2-hydroxyethyl)amino)methyl)picolinamido)-[1,1'-biphenyl]-3-yl)-4-((R)-3-hydroxypyrrolidin-1-yl)-4,5,6,7-tetrahydropyrazolo[1,5-a]pyridine-2-carboxamide] belongs over 8.00; to `COc1cc(-c2cccc(-c3cccc(NC(=O)c4cc5n(n4)CCC[C@@H]5NCC(=O)O)c3Cl)c2Cl)cc(F)c1CNCCO` [Compound 245, (S)-2-((2-((2,2'-dichloro-3"-fluoro-4"-(((2-hydroxyethyl)amino)methyl)-5"-methoxy-[1,1':3',1"-terphenyl]-3-yl)carbamoyl)-4,5,6,7-tetrahydropyrazolo[1,5-a]pyridin-4-yl)amino)acetic acid], over 8.00; to `COc1cc(-c2cccc(-c3cccc(NC(=O)c4cc5n(n4)CCC[C@H]5NCC(=O)O)c3Cl)c2Cl)cc(F)c1CNCCO` [Compound 246, (R)-2-((2-((2,2'-dichloro-3"-fluoro-4"-(((2-hydroxyethyl)amino)methyl)-5"-methoxy-[1,1':3',1"-terphenyl]-3-yl)carbamoyl)-4,5,6,7-tetrahydropyrazolo[1,5-a]pyridin-4-yl)amino)acetic acid], over 8.00.

For `COc1cc(-c2cccc(-c3cccc(NC(=O)c4cc5n(n4)CCC[C@@H]5NCC(=O)O)c3Cl)c2Cl)cc(F)c1CN1CC[C@@H](O)C1` [Compound 247, 2-(((S)-2-((2,2'-dichloro-3"-fluoro-4"-(((R)-3-hydroxypyrrolidin-1-yl)methyl)-5"-methoxy-[1,1':3',1"-terphenyl]-3-yl)carbamoyl)-4,5,6,7-tetrahydropyrazolo[1,5-a]pyridin-4-yl)amino)acetic acid], the pIC50 was over 8.00.

Regarding `COc1cc(-c2cccc(-c3cccc(NC(=O)c4cc5n(n4)CCC[C@H]5NCC(=O)O)c3Cl)c2Cl)cc(F)c1CN1CC[C@@H](O)C1` [Compound 248, 2-(((R)-2-((2,2'-dichloro-3"-fluoro-4"-(((R)-3-hydroxypyrrolidin-1-yl)methyl)-5"-methoxy-[1,1':3',1"-terphenyl]-3-yl)carbamoyl)-4,5,6,7-tetrahydropyrazolo[1,5-a]pyridin-4-yl)amino)acetic acid], the pIC50 is over 8.00. As for `COc1cc(-c2cccc(-c3cccc(NC(=O)c4cc5n(n4)CCC[C@@H]5NCC(=O)O)c3Cl)c2Cl)cc(F)c1CNC[C@@H]1CCC(=O)N1` [Compound 249, 2-(((S)-2-((2,2'-dichloro-3"-fluoro-5"-methoxy-4"-(((((S)-5-oxopyrrolidin-2-yl)methyl)amino)methyl)-[1,1':3',1"-terphenyl]-3-yl)carbamoyl)-4,5,6,7-tetrahydropyrazolo[1,5-a]pyridin-4-yl)amino)acetic acid], the pIC50 is 7.00 to 8.00. The figure for `COc1cc(-c2cccc(-c3cccc(NC(=O)c4cc5n(n4)CCC[C@H]5NCC(=O)O)c3Cl)c2Cl)cc(F)c1CNC[C@@H]1CCC(=O)N1` [Compound 250, 2-(((R)-2-((2,2'-dichloro-3"-fluoro-5"-methoxy-4"-(((((S)-5-oxopyrrolidin-2-yl)methyl)amino)methyl)-[1,1':3',1 "-terphenyl]-3-yl)carbamoyl)-4,5,6,7-tetrahydropyrazolo[1,5-a]pyridin-4-yl)amino)acetic acid] is 7.00 to 8.00; for `Cc1c(NC(=O)c2cc3n(n2)CCC[C@@H]3NCCO)cccc1-c1cccc(NC(=O)c2cc3n(n2)CCC[C@@H]3NCCO)c1C` [Compound 253, (4S,4'S)-N,N'-(2,2'-dimethyl-[1,1'-biphenyl]-3,3'-diyl)bis(4-((2-hydroxyethyl)amino)-4,5,6,7-tetrahydropyrazolo[1,5-a]pyridine-2-carboxamide)] it is over 8.00. To `Cc1nc(Nc2cccc(-c3cccc(NC(=O)c4cc5n(n4)CCC[C@@H]5N4CCC(C(=O)O)CC4)c3Cl)c2Cl)c2ncccc2n1` [Compound 254, (S)-1-(2-((2,2'-dichloro-3'-((2-methylpyrido[3,2-d]pyrimidin-4-yl)amino)-[1,1'-biphenyl]-3-yl)carbamoyl)-4,5,6,7-tetrahydropyrazolo[1,5-a]pyridin-4-yl)piperidine-4-carboxylic acid] belongs 7.00 to 8.00; to `Cc1nc(Nc2cccc(-c3cccc(NC(=O)c4cc5n(n4)CCC[C@H]5N4CCC(C(=O)O)CC4)c3Cl)c2Cl)c2ncccc2n1` [Compound 255, (R)-1-(2-((2,2'-dichloro-3'-((2-methylpyrido[3,2-d]pyrimidin-4-yl)amino)-[1,1'-biphenyl]-3-yl)carbamoyl)-4,5,6,7-tetrahydropyrazolo[1,5-a]pyridin-4-yl)piperidine-4-carboxylic acid], 7.00 to 8.00.

`O=C(Nc1cccc(-c2cccc(Nc3nccc4nccnc34)c2Cl)c1Cl)c1cc2n(n1)CCC[C@H]2N1CCC(C(=O)O)CC1` [Compound 256, (R)-1-(2-((2,2'-dichloro-3'-(pyrido[3,4-b]pyrazin-5-ylamino)-[1,1'-biphenyl]-3-yl)carbamoyl)-4,5,6,7-tetrahydropyrazolo[1,5-a]pyridin-4-yl)piperidine-4-carboxylic acid]: the pIC50 is 7.00 to 8.00.

As to `O=C(Nc1cccc(-c2cccc(Nc3nccc4nccnc34)c2Cl)c1Cl)c1cc2n(n1)CCC[C@@H]2N1CCC(C(=O)O)CC1` [Compound 257, (S)-1-(2-((2,2'-dichloro-3'-(pyrido[3,4-b]pyrazin-5-ylamino)-[1,1'-biphenyl]-3-yl)carbamoyl)-4,5,6,7-tetrahydropyrazolo[1,5-a]pyridin-4-yl)piperidine-4-carboxylic acid], the pIC50 is 7.00 to 8.00. The figure for `CC(C)(N[C@H]1CCCn2nc(C(=O)Nc3cccc(-c4cccc(Nc5nc(C(F)F)nc6cc(CN7CC[C@@H](O)C7)cnc56)c4Cl)c3Cl)cc21)C(=O)O` [Compound 258, 2-(((S)-2-((2,2'-dichloro-3'-((2-(difluoromethyl)-7-(((R)-3-hydroxypyrrolidin-1-yl)methyl)pyrido[3,2-d]pyrimidin-4-yl)amino)-[1,1'-biphenyl]-3-yl)carbamoyl)-4,5,6,7-tetrahydropyrazolo[1,5-a]pyridin-4-yl)amino)-2-methylpropanoic acid] is 7.00 to 8.00.

These data come from patent publication EP4755888A1 (ILAb Co., Ltd., priority 2023, dated 2025).
